Calls of active or inactive are those of the source. The calls are words filed in the database; no cut-off is given here.
Tests used:
MDA-MB-231 [1] = assay: Inhibition of cell migration in human MDA-MB-231 cells at 5 nM incubated for 24 to 48 hrs by wound healing assay; format: functional, cell-based
HeLa = assay: cells; conditions: Homo sapiens, 72 h
Description: Antiproliferative activity against human HeLa cells assessed as inhibition of cell proliferation incubated for 72 hrs by MTT assay

MDA-MB-231 [2] = assay: Induction of ROS generation in human MDA-MB-231 cells at 50 to 100 nM incubated for 24 to 48 hrs by H2-DCFDA staining based flow cytometric method; format: functional, cell-based
MDA-MB-231 [3] = assay: Induction of cell cycle arrest in human MDA-MB-231 cells assessed as increase in accumulation of cells at G2/M phase at 10 nM incubated for 24 hrs by PI staining based flow cytometric analysis relative to control; format: functional
MDA-MB-231 [4] = assay: Induction of apoptosis in human MDA-MB-231 cells assessed as activation of PARP cleavage at 50 to 100 nM incubated for 48 hrs by Western blot analysis; format: functional, cell-based
HL-60 = assay: Antiproliferative activity against human HL60 cells assessed as inhibition of cell proliferation incubated for 72 hrs by MTT assay; format: functional, cell-based; conditions: HL-60, 72 h
[5] = Cytotoxicity against human quiescent PBL assessed as reduction in cell viability incubated for 72 hrs by MTT assay; format: cell-based
CCRF-CEM = assay: Antiproliferative activity against human CEM cells assessed as inhibition of cell growth incubated for 72 hrs by MTT assay; format: functional
MDA-MB-231 [6] = assay: Induction of mitochondrial membrane depolarization in human MDA-MB-231 cells at 50 to 100 nM incubated for 24 to 48 hrs by JC1 staining based flow cytometric method; format: functional, cell-based
MDA-MB-231 [7] = assay: Antiproliferative activity against human MDA-MB-231 cells assessed as inhibition of cell proliferation incubated for 72 hrs by MTT assay; format: functional, cell-based; conditions: MDA-MB-231, 72 h
SEM cells = assay: Antiproliferative activity against human SEM cells assessed as inhibition of cell proliferation incubated for 72 hrs by MTT assay; format: functional, cell-based
MDA-MB-231 [8] = assay: Induction of apoptosis in human MDA-MB-231 cells at 50 nM incubated for 24 to 48 hrs by annexin V-FITC/propidium iodide staining-based flow cytometry analysis; format: functional, cell-based
MDA-MB-231 [9] = assay: Induction of cell cycle arrest in human MDA-MB-231 cells assessed as increase in p21 protein expression level at 50 to 100 nM incubated for 24 to 48 hrs by western blot analysis; format: functional, cell-based
Tubulin (Bos taurus) [10] = biological target: T1, Tubulin (Bos taurus) (UniProt Q6B856+Q862L2+Q862F3); assay: Displacement of [3H]-colchicine from bovine brain tubulin at 0.5 uM incubated for 1 hr by relative to control
MDA-MB-231 [11] = assay: Induction of cell cycle arrest in human MDA-MB-231 cells assessed as reduction in cdc2 dephosphorylation level at 50 to 100 nM incubated for 24 to 48 hrs by western blot analysis
MDA-MB-231 [12] = assay: Induction of apoptosis in human MDA-MB-231 cells assessed as reduction in Mcl1 protein expression at 50 nM incubated for 24 hrs by Western blot analysis; format: functional, cell-based
E0771 [13] = assay: Antitumour activity against mouse E0771 cells allografted in C57BL/6 mouse assessed as reduction in tumor mass at 5.0 to 15 mg/kg, ip administrated for every other day by caliper method; format: functional, organism-based
MDA-MB-231 [14] = assay: Induction of apoptosis in human MDA-MB-231 cells assessed as reduction in XIAP protein expression at 50 to 100 nM incubated for 24 to 48 hrs by Western blot analysis; format: functional, cell-based
[15] = Toxicity in C57BL/6 mouse allografted with mouse E0771 cells assessed as change in body weight at 15 mg/kg, ip administered every other day; format: organism-based; conditions: in vivo
Tubulin = Tubulin (Bos taurus, UniProt Q6B856+Q862L2+Q862F3); assay: Inhibition of bovine brain tubulin assembly using GTP as substrate incubated for 20 mins by spectrophotometric method
[16] = Cytotoxicity against human astrocytes assessed as reduction in cell viability incubated for 72 hrs by MTT assay; format: cell-based, Astrocyte
E0771 [17] = assay: Antitumour activity against mouse E0771 cells allografted in ip dosed C57BL/6 mouse assessed as reduction in tumor burden administrated every other day by caliper method; format: functional, organism-based
[18] = Cytotoxicity against PHA-stimulated human PBL assessed as reduction in cell viability incubated for 72 hrs by MTT assay; format: cell-based
HT-29 = assay: cells; conditions: Homo sapiens, HT-29, 72 h
Description: Antiproliferative activity against human HT-29 cells assessed as inhibition of cell proliferation incubated for 72 hrs by MTT assay

MDA-MB-231 [19] = assay: Induction of cell cycle arrest in human MDA-MB-231 cells assessed as effect on cyclin B protein expression at 50 to 100 nM incubated for 24 to 48 hrs by western blot analysis; format: functional, cell-based
[20] = Antiproliferative activity against human CEM/VBL100 cells overexpressing P-gp assessed as inhibition of cell growth incubated for 72 hrs by MTT assay; format: functional; conditions: CEM/VBL100, 72 h
MDA-MB-231 [21] = assay: Induction of cell cycle arrest in human MDA-MB-231 cells assessed as reduction in cdc25c protein expression at 50 nM incubated for 24 to 48 hrs by western blot analysis; format: functional, cell-based
MDA-MB-231 [22] = assay: Induction of cell cycle arrest in human MDA-MB-231 cells assessed as reduction in accumulation of cells at S phase at 10 to 100 nM incubated for 24 hrs by PI staining based flow cytometric analysis; format: functional
E0771 [23] = assay: Antitumour activity against mouse E0771 cells allografted in C57BL/6 mouse assessed as reduction in tumor burden at 5.0 mg/kg, ip administrated every other day by caliper method; format: functional, organism-based
MCF7 = assay: cells; conditions: Homo sapiens, MCF7, 72 h
Description: Antiproliferative activity against human MCF7 cells assessed as inhibition of cell proliferation incubated for 72 hrs by MTT assay

Tubulin (Bos taurus) [24] = biological target: T1, Tubulin (Bos taurus); assay: Displacement of [3H]-colchicine from bovine brain tubulin at 5 uM incubated for 1 hr by relative to control
MDA-MB-231 [25] = assay: Induction of cell cycle arrest in human MDA-MB-231 cells assessed as reduction in accumulation of cells at G1 phase at 10 to 100 nM incubated for 24 hrs by PI staining based flow cytometric analysis; format: functional

IC50 (HeLa): 0.07 nM
IC50 (HL-60): 0.25 nM
GI50 (CCRF-CEM): 0.35 nM
IC50 (MDA-MB-231 [7]): 0.7 nM
inhibition (Tubulin (Bos taurus) [10]): 90%
IC50 (Tubulin): 350 nM
IC50 (HT-29): 0.06 nM
IC50 (MCF7): 0.21 nM
inhibition (Tubulin (Bos taurus) [24]): 96%
Structure (SMILES): CCOc1ccc(-c2n[nH]cc2-c2cc(OC)c(OC)c(OC)c2)cc1
inhibition (MDA-MB-231 [1]): Active
Activity (MDA-MB-231 [2]): Active
Activity (MDA-MB-231 [3]): 60%
Activity (MDA-MB-231 [4]): Active
GI50 at 72 h [5]: > 10000 nM
Activity (MDA-MB-231 [6]): Active
IC50 (SEM cells): 0.06 nM
Activity (MDA-MB-231 [8]): Active
Activity (MDA-MB-231 [9]): Active
Activity (MDA-MB-231 [11]): Active
Activity (MDA-MB-231 [12]): Active
inhibition (E0771 [13]): Active
Activity (MDA-MB-231 [14]): Active
Activity [15]: Non-Toxic
GI50 at 72 h [16]: > 10000 nM
inhibition (E0771 [17]): Dose-dependent effect
GI50 at 72 h [18]: > 10000 nM
Activity (MDA-MB-231 [19]): inactive
GI50 [20]: 0.52 nM
Activity (MDA-MB-231 [21]): Active
Activity (MDA-MB-231 [22]): Active
inhibition (E0771 [23]): Active
Activity (MDA-MB-231 [25]): Active
